Experimental data reported in patent publication US20120142766A1, “SUBSTITUTED 1,3-DIOXANES AND THEIR USES” (EVOLVA SA, priority 2007, published 2012).

Target: T1, Thromboxane synthase (Homo sapiens, UniProt P24557)
T1 construct: Human Platelet Thromboxane Synthase Assay; from tissue; host or cells: human platelets
T1 sequence (P24557 1-533): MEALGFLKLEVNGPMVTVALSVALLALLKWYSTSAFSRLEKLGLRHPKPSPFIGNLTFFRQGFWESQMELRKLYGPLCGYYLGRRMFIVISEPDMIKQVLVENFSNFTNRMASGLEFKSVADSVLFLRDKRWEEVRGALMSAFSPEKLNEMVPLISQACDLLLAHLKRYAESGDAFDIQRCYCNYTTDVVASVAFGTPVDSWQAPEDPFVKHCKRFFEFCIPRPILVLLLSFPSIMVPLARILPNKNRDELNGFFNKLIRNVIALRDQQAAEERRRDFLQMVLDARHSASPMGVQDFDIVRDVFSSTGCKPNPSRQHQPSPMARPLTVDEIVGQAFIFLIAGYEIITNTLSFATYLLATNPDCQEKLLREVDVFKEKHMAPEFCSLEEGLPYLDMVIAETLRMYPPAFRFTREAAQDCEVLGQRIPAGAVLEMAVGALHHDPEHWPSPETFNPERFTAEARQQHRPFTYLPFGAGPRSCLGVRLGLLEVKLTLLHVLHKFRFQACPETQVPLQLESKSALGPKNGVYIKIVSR
Test: Human platelet thromboxane synthase assay
Assay type: biochemical
Details: 10 μM
Procedure: The compounds were tested for thromboxane synthase inhibition essentially as described by Borsch-Haubold A G, Pasquet S, Watson S P. (1998) Direct inhibition of cyclooxygenase-1 and -2 by the kinase inhibitors SB 203580 and PD 98059. […] 1. Imidazole derivatives. J Med. Chem. (10):1139-48 according to the following:
Pre-incubation time, temp: 15 minutes at 25° C. Incubation time, temp: 3 minutes at 25° C.
Incubation Buffer: 10 mM Tris-HCl, pH 7.4
Quantification Method: EIA quantification of TxB2

For `O=C(O)CC/C=C\C[C@@H]1CO[C@H](c2ccccc2Cl)O[C@@H]1c1ccccc1O` [Compound C, (Z)-6-((2S,4S,5R)-2-(2-chlorophenyl)-4-(2-hydroxyphenyl)-1,3-dioxan-5-yl)hex-4-enoic acid], the “Thromboxane synthase Human platelet Inhibition (%)” value was 61% and the inhibition at 10 µM was 43%.
